Measured values reported in ChEMBL document CHEMBL3217595, “RCAI-133, an N-methylated analogue of KRN7000, activates mouse natural killer T cells to produce Th2-biased cytokines” (2013).
Activity calls are given as the source filed them. No cut-off for these calls is given here.

Key:
Mus musculus [1] = test: Immunostimulatory activity in C57BL/6 mouse assessed as induction of IL-4 production in serum at 2 ug, iv administered through PBS solution; assay type: functional, organism-based
Mus musculus [2] = test: Immunostimulatory activity in C57BL/6 mouse assessed as induction of IFN-gamma production in serum at 2 ug, iv administered through PBS solution by ELISA; assay type: functional, organism-based
Mus musculus [3] = test: Immunostimulatory activity in C57BL/6 mouse assessed as induction of IL-4/IFN-gamma ratio in serum at 2 ug, iv administered through PBS solution; assay type: functional

**Q.** Which Activity (Mus musculus [1]) does the source give for `CCCCCCCCCCCCCCCC[C@@H](C)C(=O)N(C)[C@@H](CO[C@H]1O[C@H](CO)[C@H](O)[C@H](O)[C@H]1O)[C@H](O)[C@H](O)CCCCCCCCCCCCCC` here?
**A.** inactive

**Q.** What about the Activity (Mus musculus [2]) of the same compound?
**A.** inactive

**Q.** Which Activity (Mus musculus [1]) does the source give for `CCCCCCCCCCCCCCCC[C@@H](O)C(=O)N(C)[C@@H](CO[C@H]1O[C@H](CO)[C@H](O)[C@H](O)[C@H]1O)[C@H](O)[C@H](O)CCCCCCCCCCCCCC` here?
**A.** inactive

**Q.** And the Activity (Mus musculus [2])?
**A.** inactive

**Q.** With `CCCCCCCCCCCCCCCCCC(=O)N(C)[C@@H](CO[C@H]1O[C@H](CO)[C@H](O)[C@H](O)[C@H]1O)[C@H](O)[C@H](O)CCCCCCCCCCCCCC` as the compound, how does the Ratio (Mus musculus [3]) read?
**A.** 0.0095

**Q.** And the Activity (Mus musculus [1])?
**A.** inactive

**Q.** What about the Activity (Mus musculus [2]) of the same compound?
**A.** inactive

**Q.** Which Activity (Mus musculus [1]) does the source give for `CCCCCCCCCCCCCCCCC(C)(C)C(=O)N[C@@H](CO[C@H]1O[C@H](CO)[C@H](O)[C@H](O)[C@H]1O)[C@H](O)[C@H](O)CCCCCCCCCCCCCC` here?
**A.** Active

**Q.** What about the Activity (Mus musculus [2]) of the same compound?
**A.** Active

**Q.** With `CCCCCCCCCCCCCCCC[C@@H](C)C(=O)N[C@@H](CO[C@H]1O[C@H](CO)[C@H](O)[C@H](O)[C@H]1O)[C@H](O)[C@H](O)CCCCCCCCCCCCCC` as the compound, how does the Activity (Mus musculus [1]) read?
**A.** Active

**Q.** And the Activity (Mus musculus [2])?
**A.** Active

**Q.** Which results are given for `CCCCCCCCCCCCCCCC[C@@H](O)C(=O)N[C@@H](CO[C@H]1O[C@H](CO)[C@H](O)[C@H](O)[C@H]1O)[C@H](O)[C@H](O)CCCCCCCCCCCCCC`?
**A.** Activity (Mus musculus [1]): Active; Activity (Mus musculus [2]): Active

**Q.** Which Ratio (Mus musculus [3]) does the source give for `CCCCCCCCCCCCCCCCCCCCCCCCCC(=O)N(C)[C@@H](CO[C@H]1O[C@H](CO)[C@H](O)[C@H](O)[C@H]1O)[C@H](O)[C@H](O)CCCCCCCCCCCCCC` here?
**A.** 0.017

**Q.** `CCCCCCCCCCCCCCCCCCCCCCCCCC(=O)N[C@@H](CO[C@H]1O[C@H](CO)[C@H](O)[C@H](O)[C@H]1O)[C@H](O)[C@H](O)CCCCCCCCCCCCCC` [RGI-7000] was tested. Which Ratio (Mus musculus [3]) did it give?
**A.** 0.0043

**Q.** For `CCCCCCCCCCCCCCCCC(C)(C)C(=O)N(C)[C@@H](CO[C@H]1O[C@H](CO)[C@H](O)[C@H](O)[C@H]1O)[C@H](O)[C@H](O)CCCCCCCCCCCCCC`, which Activity (Mus musculus [1]) is on record?
**A.** inactive

**Q.** What about the Activity (Mus musculus [2]) of the same compound?
**A.** inactive

**Q.** With `CCCCCCCCCCCCCCCCCC(=O)N[C@@H](CO[C@H]1O[C@H](CO)[C@H](O)[C@H](O)[C@H]1O)[C@H](O)[C@H](O)CCCCCCCCCCCCCC` as the compound, how does the Activity (Mus musculus [1]) read?
**A.** Active

**Q.** And the Activity (Mus musculus [2])?
**A.** Active
